The target of the series is CYP2C9 (Homo sapiens, UniProt P11712). Put plainly: CYP2C9-catalyzed diclofenac 4′-hydroxylation in human liver microsomes (IC50 and time-dependent inhibition). It counts as in vitro ADME. Set-up: from tissue; host or cells: ultrapooled human liver microsomes. Here is the method: The inhibitory potential (IC50 values) of EAM-2201 on CYP1A2, CYP2A6, CYP2C8, CYP2C9, CYP2C19, CYP2D6 and CYP3A4 were evaluated using ultrapooled human liver microsomes and a cocktail of seven CYP substrates followed by LC-tandem mass spectrometry (LC-MS/MS) as previously described. Each incubation mixture was prepared in a total volume of 100 µL as follows: pooled human liver microsomes (5.2 pmol CYP), 1.0 mM NADPH, 10 mM magnesium chloride, 50 mM potassium phosphate buffer (pH 7.4), various concentrations of EAM-2201 in DMSO (final concentrations of 0.1–50 µM, 0.5% DMSO) and a cocktail of seven CYP probe substrates in 50% acetonitrile (0.5% acetonitrile), including 50 µM phenacetin, 2.5 µM coumarin, 2.0 µM amodiaquine, 10 µM diclofenac, 100 µM [S]-mephenytoin, 5 µM bufuralol and 2.5 µM midazolam in 50% acetonitrile. After a 3-min preincubation at 37 °C, the reactions were initiated by adding NADPH and incubation proceeded for 15 min at 37 °C in a shaking water bath. The reactions were stopped by adding 100 µL of ice-cold methanol containing internal standards (^13C2,^15N-acetaminophen for acetaminophen and N-desethylamodiaquine; d9-1′-hydroxybufuralol for 4′-hydroxydiclofenac, 7-hydroxycoumarin, 4′-hydroxymephenytoin, 1′-hydroxybufuralol and 1′-hydroxy-midazolam). The incubation mixtures were centrifuged at 13,000× g for 4 min at 4 °C and 50 µL of each supernatant was diluted in 50 µL of water. Aliquots (5 µL) of the diluted supernatants were analyzed using LC-MS/MS. All assays were performed in triplicate and the mean values were used in calculations. […] Each reaction was initiated by adding the seven-CYP probe substrate cocktail described above.
Sequence of CYP2C9 (P11712 whole entry): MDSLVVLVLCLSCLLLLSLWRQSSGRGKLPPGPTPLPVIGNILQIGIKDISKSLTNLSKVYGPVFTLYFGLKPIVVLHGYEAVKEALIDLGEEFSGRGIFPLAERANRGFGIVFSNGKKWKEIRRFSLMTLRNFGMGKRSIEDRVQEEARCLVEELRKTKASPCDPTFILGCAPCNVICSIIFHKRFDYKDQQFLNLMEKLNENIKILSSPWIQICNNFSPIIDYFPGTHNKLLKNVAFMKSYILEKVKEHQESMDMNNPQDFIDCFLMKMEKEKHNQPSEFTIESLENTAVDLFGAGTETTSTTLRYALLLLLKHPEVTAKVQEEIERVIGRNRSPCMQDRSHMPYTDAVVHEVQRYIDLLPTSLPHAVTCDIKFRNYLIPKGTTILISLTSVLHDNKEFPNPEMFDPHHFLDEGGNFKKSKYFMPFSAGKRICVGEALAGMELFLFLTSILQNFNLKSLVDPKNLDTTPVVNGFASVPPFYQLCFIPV
The time-dependent inhibitory effects of EAM-2201 on CYP2C8, CYP2C9, CYP2C19 and CYP3A4 activities in ultrapooled human liver microsomes were evaluated using time- and concentration-dependent inhibition assays. Ultrapooled human liver microsomes (26.0 pmol CYP) were pre-incubated with various concentrations of EAM-2201 in DMSO (0.5% DMSO) in 50 mM potassium phosphate buffer (pH 7.4) in the presence of NADPH for predetermined time periods: 5–15 min for CYP2C8 activity, 5–20 min for CYP2C9 activity and 15–40 min for CYP2C19 and CYP3A4 activities. […] Aliquots (5 µL) of the diluted supernatants were analyzed using LC-MS/MS.
The metabolites formed from CYP substrates were simultaneously quantified using our previously described LC-MS/MS method. […]
In general terms: Liver microsomes are vesicles of endoplasmic reticulum, rich in cytochrome P450 enzymes.

Consider `CCc1ccc(C(=O)c2cn(CCCCCF)c3ccccc23)c2ccccc12` [EAM-2201, (4-ethyl-1-naphthalenyl)[1-(5-fluoropentyl)-1H-indol-3-yl]-methanone], for which half-maximal inhibition (IC50) was put at 6.7 µM. Moreover, the “inactivation efficiency (kinact/Ki), CYP2C9” value (human liver microsomes) was determined as 257 M⁻¹ s⁻¹. Also, where the note is “human, ultrapooled human liver microsomes, pH 7.4, probe diclofenac (10 µM), 4′-hydroxylation, read-out: kinact, time-dependent inhibition of CYP2C9 diclofenac 4′-hydroxylase (converted)”, the kinact (usually the maximal first-order rate at which the target is inactivated) is 0.00077 s⁻¹. Moreover, the “inhibition of CYP2C9-catalyzed diclofenac 4′-hydroxylation” value (up to 50 µM, without 30-min preincubation, human liver microsomes) is reported as “negligibly inhibited”.

(Values after PMC6017357, “In Vitro Inhibitory Effects of Synthetic Cannabinoid EAM-2201 on Cytochrome P450 and UDP-Glucuronosyltransferase Enzyme Activities in Human Liver Microsomes” (Molecules : A Journal of Synthetic Chemistry and Natural …, 2018).)
